Test results published in US5364844A, “Renin-inhibitory oligopeptides, their preparation and use” (Sankyo Company, Limited, priority 1988, dated 1994).

Target: T1, human renin (Homo sapiens, UniProt P00797)
T1 sequence (P00797 67-406): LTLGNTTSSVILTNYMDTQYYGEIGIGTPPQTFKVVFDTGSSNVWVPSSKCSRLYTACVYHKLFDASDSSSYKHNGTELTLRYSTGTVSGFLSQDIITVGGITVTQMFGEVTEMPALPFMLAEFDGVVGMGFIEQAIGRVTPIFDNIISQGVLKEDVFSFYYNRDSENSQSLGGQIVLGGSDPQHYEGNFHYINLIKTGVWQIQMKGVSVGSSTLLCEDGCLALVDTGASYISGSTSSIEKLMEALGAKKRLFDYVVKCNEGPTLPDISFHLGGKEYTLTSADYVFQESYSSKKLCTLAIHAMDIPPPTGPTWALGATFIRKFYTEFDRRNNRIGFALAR
Assay: Inhibition of human renin activity (procedure of Kokubu et al.)
Format: biochemical
Details: sheep angiotensinogen, pH 7.3, 10 minutes at 37° C.; mean of 3 or 4 experiments
Method: The ability of various compounds of the invention to inhibit the activity of renin was determined according to the following method, which follows essentially the procedure of Kokubu et al. [Hypertension, 5, 191-197 (1983)].
Specifically, each test compound was dissolved in 60% v/v aqueous ethanol. Human renin activity in the presence and absence of each compound was measured using sheep angiotensinogen. The total volume of 1 ml of assay mixture contained 0.1 mole/liter phosphate buffer (pH 7.3), human renin (equivalent to 0.5 ng angiotensin I per ml per minute), sheep angiotensinogen (equivalent to 200 ng angiotensin I), […], 6% v/v ethanol and angiotensinase inhibitors (10 mmole/liter sodium ethylenediaminetetraacetate and 3.4 mmole/liter 8-hydroxyquinoline). The mixture was allowed to react for 10 minutes at 37° C., and then the reaction was stopped by placing the reaction tube in a boiling water bath for 5 minutes. The mixture was then centrifuged and the supernatant (0.05-0.1 ml) was used to assay remaining angiotensin I.
An identical experiment was carried out, as a control, except that the test compound was omitted. From the values obtained were calculated the % inhibition of renin activity achieved by each test compound. The results are shown in the following Table 9, in which the compounds of the invention are identified by the numbers of the Examples given hereafter in which are described their preparation. The values given are the mean of 3 or 4 experiments.

| SMILES | Inhibitory Activity (%) Against Human Renin |
| --- | --- |
| CCC(C)CNC(=O)[C@@H](C[C@H](O)[C@H](CC(C)C)NC(=O)[C@H](Cc1cscn1)NC(=O)[C@H](Cc1cccc2ccccc12)NC(=O)OC(C)(C)C)C(C)(C)O (mixture of isomers) [Example 7, (2S, 4S, 5S)-5-{N-[N-(t-Butoxycarbonyl)-3-(1-naphthyl)-L-alanyl]-3-(4-thiazolyl)-L-alanyl}amino-4-hydroxy-2-(1-hydroxy-1-methylethyl)-7-methyl-N-[2(RS)-methylbutyl]octanamide] | 98.2% |
| CCC(C)CNC(=O)[C@@H](C[C@H](O)[C@H](CC(C)C)NC(=O)[C@H](Cc1cscn1)NC(=O)[C@@H](CC(=O)N(C)C1CCCCC1)Cc1cccc2ccccc12)C(C)(C)O (mixture of isomers) [Example 8, (2S, 4S, 5S)-5-{N-[2(R)-(1-Naphthylmethyl)-3-(N-cyclohexyl-N-methylaminocarbonyl)propionyl]-3-(4-thiazolyl)-L-alanyl}amino-4-hydroxy-2-(1-hydroxy-1-methylethyl)-7-methyl-N-[2-(RS)-methylbutyl]octanamide] | 97.4% |
| CC[C@H](C)CNC(=O)[C@@H](C[C@H](O)[C@H](CC1CCCCC1)NC(=O)[C@H](Cc1cscn1)NC(=O)[C@H](Cc1cccc2ccccc12)NC(=O)CN1CCOCC1)C(C)(C)O [Example 2, (2S, 4S, 5S)-5-{N-[N-Morpholinoacetyl-3-(1-naphthyl)-L-alanyl]-3-(4-thiazolyl)-L-alanyl}amino-6-cyclohexyl-4-hydroxy-2-(1-hydroxy-1-methylethyl)-N-[2(S)-methylbutyl]hexanamide] | 96.3% |
| CC[C@H](C)CNC(=O)[C@@H](C[C@H](O)[C@H](CC1CCCCC1)NC(=O)[C@H](Cc1cscn1)NC(=O)[C@H](Cc1ccccc1)NC(=O)CN1CCOCC1)C(C)(C)O [Example 3, (2S, 4S, 5S)-S-{N-[N-Morpholinoacetyl-L-phenylalanyl]-3-(4-thiazolyl)-L-alanyl}amino-6-cyclohexyl-4-hydroxy-2-(1-hydroxy-1-methylethyl)-N-[2(S)-methylbutyl]hexanamide] | 96.7% |
| CC[C@H](C)CNC(=O)[C@@H](C[C@H](O)[C@H](CC1CCCCC1)NC(=O)[C@H](Cc1cscn1)NC(=O)[C@@H](CC(=O)N1CCOCC1)Cc1cccc2ccccc12)C(C)(C)O [Example 4, (2S, 4S, 5S)-5-{N-[2(R)-(1-Naphthylmethyl)-3-(morpholinocarbonyl)propionyl]-3-(4-thiazolyl)-L-alanyl}amino-6-cyclohexyl-4-hydroxy-2-(1-hydroxy-1-methylethyl)-N-[2(S)-methylbutyl]hexanamide] | 96.8% |
| CC[C@H](C)CNC(=O)[C@@H](C[C@H](O)[C@H](CC1CCCCC1)NC(=O)[C@H](Cc1cscn1)NC(=O)[C@@H](CC(=O)N1CCOCC1)Cc1ccccc1)C(C)(C)O [Example 5, (2S, 4S, 5S)-5-{N-[2(R)-Benzyl-3-(morpholinocarbonyl)propionyl]-3-(4-thiazolyl)-L-alanyl}amino-6-cyclohexyl-4-hydroxy-2-(1-hydroxy-1-methylethyl)-N-[2 (S)-methylbutyl]hexanamide] | 92.2% |
| CNC(=O)[C@@H](C[C@H](O)[C@H](CC1CCCCC1)NC(=O)[C@H](Cc1cscn1)NC(=O)[C@@H](CC(=O)N1CCOCC1)Cc1ccccc1)C(C)(C)O [Example 9] | 90.9% |
